Data as given in patent publication US20240226079A1, “TOPICAL ANAESTHETIC COMPOSITION HAVING IMPROVED VASOCONSTRICTOR STABILITY” (Animal Ethics Pty Ltd, priority 2021, published 2024).
Where two headings read alike, the source gives them in different places.

Test: Forced degradation studies of the drug substances
Excerpt: Table 4 summarises information on the relative chemical stability of the drug substances, obtained in forced degradation studies.

CNCC(O)c1ccc(O)c(O)c1 (stereo not shown) [Adrenaline]
% Degradation: 51.6%

CCCCN1CCCCC1C(=O)Nc1c(C)cccc1C (stereo not shown) [Bupivacaine]
% Degradation: 11.2%

CCN(CC)CC(=O)Nc1c(C)cccc1C [Lignocaine]
% Degradation (Acid, 8 Weeks): −0.3% | % Degradation (Base, 8 Weeks): 1.1% | % Degradation (Heat, 8 Weeks): 1.1% | % Degradation (Light, 51 × 10^6 lux hrs): 9.9% | % Degradation (Oxidation 1, 8 Weeks): −0.2% | % Degradation (Oxidation 2, 8 Weeks): 3.3% | % Degradation (Reduction, 8 Weeks): −0.3%

Cetrimide
% Degradation (Acid, 8 Weeks): 0.4% | % Degradation (Base, 8 Weeks): 0.9% | % Degradation (Heat, 8 Weeks): 0.5% | % Degradation (Light, 51 × 10^6 lux hrs): 8.9% | % Degradation (Oxidation 1, 8 Weeks): −0.2% | % Degradation (Oxidation 2, 8 Weeks): 1.0% | % Degradation (Reduction, 8 Weeks): 8.4%
